Tested on: tissue engineered human skin model (EpiDerm™)
Assay: In vitro skin irritation test, EpiDerm (EPI-200-SIT), MTT assay
Type: cell-based
Details: 60 minutes exposure, relative to negative control, irritant if below 50%
Experimental: A 24 tissue insert EpiDerm™ skin irritation kit was purchased from MatTek In Vitro Life Science Laboratories, Slovakia (EPI-200-SIT). On receipt of the kit, the tissues were visually assessed for integrity and conditioned by transferring into sterile 6 well plates, adding 0.9 ml medium and incubating for 60 minutes at 37° C., 5% CO2, 95% RH. After 60 minutes, the tissues were removed, placed in fresh medium and further incubated for 18 hours.
To test for irritancy potential, 30 μl of liquid formulation, plus positive and negative control or 25 mg semisolid (gel/moisturiser) were applied to surface of each test tissue insert. After dosing the inserts were incubated for 35 minutes (37° C., 5% CO2, 95% RH). […]
Once extraction was complete, 200 μl samples from each tissue were added to a 96 well plate in duplicate for the MTT assay of cell viability, and 200 μl isopropanol to 4 wells as blanks. The optical density of each well was read using a spectrophotometric plate reader at 570 nm without using a reference filter.
The mean OD (optical density) from the blank wells was subtracted from the OD of each well. The mean OD from each duplicate was then obtained and the individual relative tissue viability for each tissue treated with a test substance (TS), the positive control (PC) and the negative control (NC) calculated according to the following formulas: […]

## CCCCCCCCCCCCOS(=O)(=O)[O-].[Na+] [5% SDS]
  Mean RV % (relative viability): 9.0%
